Experimental data from patent US20150105252A1, “SUBSTITUTED PYRAZOLES AS HERBICIDES” (E I DU PONT DE NEMOURS AND COMPANY, priority 2013, published 2015).

Key:
Italian ryegrass = experiment: Test A postemergence; format: in vivo, Lolium multiflorum
Summary of the method: (§1)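 Pre- and postemergence greenhouse test; loam+sand; cpd in non-phytotox. solvent/surfactant; post at 1–2 leaf, 2–10 cm; visual score ~10 d, 0 = none, 100 = complete control.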

common ragweed = experiment: Test A preemergence; format: in vivo, Ambrosia elation
Summary of the method: as §1

lambsquarters = experiment: Test F preemergence; format: in vivo, Chenopodium album
Source text: (§2) Seeds of plant species selected from corn (Zea mays), soybean (Glycine max), velvetleaf (Abutilon theophrasti), lambsquarters (Chenopodium album), wild poinsettia (Euphorbia heterophylla), pigweed, palmer (palmer pigweed, Amaranthus palmeri), common waterhemp (Amaranthus rudis), surinam grass (Brachiaria decumbens), large crabgrass (Digitaria sanguinalis), crabgrass, Brazil (Brazilian crabgrass, Digitaria horizontalis), fall panicum (Panicum dichotomiflorum), giant foxtail (Setaria faberii), green foxtail (Setaria viridis), goosegrass (Eleusine indica), johnsongrass (Sorghum halepense), common ragweed (Ambrosia elation), barnyardgrass (Echinochloa crus-galli), southern sandbur (Cenchrus echinatus), arrowleaf sida (Sida rhombifolia), Italian ryegrass (Lolium multiflorum), dayflower, VA (Virginia (VA) dayflower, Commelina virginica), field bindweed (Convolvulus arvensis), cocklebur (common cocklebur, Xanthium strumarium), morningglory (Ipomoea coccinea), nightshade (eastern black nightshade, Solanum ptycanthum), kochia (Kochia scoparia), yellow nutsedge (Cyperus esculentus), and hairy beggarticks (Bidens pilosa), were planted into a silt loam soil and treated preemergence with test chemicals formulated in a non-phytotoxic solvent mixture which included a surfactant.
(§3) At the same time, plants from these crop and weed species and also horseweed (Canada horseweed, Conyza canadensis), smartweed (ladysthumb smartweed, Polygonum persicaria), waterhemp_RES1, (ALS & Triazine resistant common waterhemp, Amaranthus rudis), and waterhemp_RES2, (ALS & HPPD resistant common waterhemp, Amaranthus rudis) were treated with postemergence applications of test chemicals formulated in the same manner. Plants ranged in height from 2 to 18 cm for postemergence treatments (1- to 4-leaf stage). Treated plants and controls were maintained in a greenhouse for 14 to 21 days, after which time all species were compared to controls and visually evaluated. Plant response ratings, summarized in Table F, are based on a scale of 0 to 100 where 0 is no effect and 100 is complete control. A dash (-) response means no test result.

dayflower, VA = experiment: Test F preemergence; format: in vivo, Commelina virginica
Source text: as §2, §3

pigweed, palmer = experiment: Test F preemergence; format: in vivo, Amaranthus palmeri
Source text: as §2, §3

[1] = Postemergence, 500 g ai/ha, 0 to 100 scale (0 no effect, 100 complete control)
[2] = postemergence, 125 g ai/ha, about 10 days, visual rating on 0 to 100 scale (0 no effect, 100 complete control)
[3] = 125 g ai/ha, visual injury, 0 to 100 scale, approx. 10 days
[4] = 500 g ai/ha, visual injury after approx. 10 days, 0 to 100 scale (0 no effect, 100 complete control)
[5] = Preemergence, 62 g ai/ha, scale 0 to 100
[6] = Preemergence, 125 g ai/ha, scale 0 to 100
[7] = Preemergence, 250 g ai/ha, scale 0 to 100
[8] = preemergence, 16 g ai/ha, scale 0 to 100, 100 is complete control

CCc1cc(C(=O)NOC(C)C)nn1Cc1ccnc(OC(F)F)c1 [Compound 126]
Italian Ryegrass plant response rating (Italian ryegrass; [1]): 100
Italian Ryegrass plant response rating (Italian ryegrass; [2]): 90
Common Ragweed plant response rating (common ragweed; [3]): 90
Common Ragweed plant response rating (common ragweed; [4]): 100

CCCc1cc(C(=O)NCC(F)(F)F)nn1Cc1ccnc(OC(F)F)c1 [Compound 127]
Italian Ryegrass plant response rating (Italian ryegrass; [1]): 90
Italian Ryegrass plant response rating (Italian ryegrass; [2]): 80
Common Ragweed plant response rating (common ragweed; [3]): 30
Common Ragweed plant response rating (common ragweed; [4]): 90

CCOc1cc(C(=O)NCC(F)(F)F)nn1Cc1ccnc(OC(F)F)c1 [Compound 128]
Italian Ryegrass plant response rating (Italian ryegrass; [1]): 100
Italian Ryegrass plant response rating (Italian ryegrass; [2]): 90
Common Ragweed plant response rating (common ragweed; [3]): 70
Common Ragweed plant response rating (common ragweed; [4]): 90

CCCNC(=O)c1cc(OCC)n(Cc2ccnc(OC(F)F)c2)n1 [Compound 136]
Italian Ryegrass plant response rating (Italian ryegrass; [1]): 90
Italian Ryegrass plant response rating (Italian ryegrass; [2]): 80
Common Ragweed plant response rating (common ragweed; [3]): 70
Common Ragweed plant response rating (common ragweed; [4]): 80

CCCc1cc(C(=O)NC(C)C)nn1Cc1cc(C(F)(F)F)nn1C [Compound 201]
Plant response rating, Lambsquarters (lambsquarters; [5]): 70
Plant response rating, Lambsquarters (lambsquarters; [6]): 100
Plant response rating, Lambsquarters (lambsquarters; [7]): 100
Plant response rating, Lambsquarters (lambsquarters; [8]): 0
Plant response rating, Dayflower, VA (dayflower, VA; [5]): 0
Plant response rating, Dayflower, VA (dayflower, VA; [6]): 35
Plant response rating, Dayflower, VA (dayflower, VA; [7]): 65
Plant response rating, Dayflower, VA (dayflower, VA; [8]): 0
Plant response rating, Pigweed, Palmer (pigweed, palmer; [5]): 40
Plant response rating, Pigweed, Palmer (pigweed, palmer; [6]): 65
Plant response rating, Pigweed, Palmer (pigweed, palmer; [7]): 90
Plant response rating, Pigweed, Palmer (pigweed, palmer; [8]): 0

CCCc1cc(C(=O)NC2CC2)nn1Cc1ccnc(OC(F)F)c1 [Compound 205]
Italian Ryegrass plant response rating (Italian ryegrass; Postemergence, 125 g ai/ha, 0 to 100 scale, 0 no effect, 100 complete control): 70
Italian Ryegrass plant response rating (Italian ryegrass; [1]): 100
Common Ragweed plant response rating (0 to 100 scale) (common ragweed; 125 g ai/ha, visual injury approx. 10 days after treatment): 70
Common Ragweed plant response rating (common ragweed; [4]): 100

CCc1cc(C(=O)NCC(F)(F)F)nn1Cc1ccnc(Br)c1 [Compound 224]
Plant response rating, Lambsquarters (lambsquarters; [5]): 98
Plant response rating, Lambsquarters (lambsquarters; [6]): 98
Plant response rating, Lambsquarters (lambsquarters; [7]): 100
Plant response rating, Dayflower, VA (dayflower, VA; [5]): 0
Plant response rating, Dayflower, VA (dayflower, VA; [6]): 40
Plant response rating, Dayflower, VA (dayflower, VA; [7]): 85
Plant response rating, Pigweed, Palmer (pigweed, palmer; [5]): 100
Plant response rating, Pigweed, Palmer (pigweed, palmer; [6]): 100
Plant response rating, Pigweed, Palmer (pigweed, palmer; [7]): 100
